Laboratory results: article PMC10883374 (Science Advances, 2022)

Key:
hSAMTOR = conditions: read-out: dissociation constant (Kd); cited from earlier work
[1] = target: T1, hSAMTOR MTase domain (residues 91 to 405) interaction with GATOR1-KICSTOR (Homo sapiens, UniProt Q1RMZ1); test: Co-IP of hSAMTOR C-terminal MTase domain; assay type: biochemical; conditions: hSAMTOR CTD alone, HEK 293T cell lysates, 0.5 mM SAM
T1 sequence (Q1RMZ1 91-405): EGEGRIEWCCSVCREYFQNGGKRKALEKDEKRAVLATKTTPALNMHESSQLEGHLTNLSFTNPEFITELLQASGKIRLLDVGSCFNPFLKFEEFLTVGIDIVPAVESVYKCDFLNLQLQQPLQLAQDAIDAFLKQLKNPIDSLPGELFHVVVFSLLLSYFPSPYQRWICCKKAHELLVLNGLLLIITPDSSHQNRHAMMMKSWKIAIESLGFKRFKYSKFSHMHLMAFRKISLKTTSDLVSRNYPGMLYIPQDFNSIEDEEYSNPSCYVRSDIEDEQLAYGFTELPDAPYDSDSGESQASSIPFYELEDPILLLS
T1 sequence (Q12980 1-569 partner): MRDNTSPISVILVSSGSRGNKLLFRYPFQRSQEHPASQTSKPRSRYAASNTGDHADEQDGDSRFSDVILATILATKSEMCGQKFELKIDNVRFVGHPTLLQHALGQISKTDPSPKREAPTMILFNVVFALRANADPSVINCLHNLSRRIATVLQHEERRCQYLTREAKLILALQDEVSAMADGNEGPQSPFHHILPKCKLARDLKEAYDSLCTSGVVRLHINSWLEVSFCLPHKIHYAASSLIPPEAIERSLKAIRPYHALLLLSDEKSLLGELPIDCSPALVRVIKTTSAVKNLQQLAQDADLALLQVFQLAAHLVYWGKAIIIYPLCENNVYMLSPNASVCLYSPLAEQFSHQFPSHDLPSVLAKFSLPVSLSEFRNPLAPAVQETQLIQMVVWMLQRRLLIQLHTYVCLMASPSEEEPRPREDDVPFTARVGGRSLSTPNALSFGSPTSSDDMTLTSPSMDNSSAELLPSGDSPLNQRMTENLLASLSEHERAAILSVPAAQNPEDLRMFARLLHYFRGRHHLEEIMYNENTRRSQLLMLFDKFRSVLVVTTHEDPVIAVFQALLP
T1 sequence (Q9Y664 1-436 partner): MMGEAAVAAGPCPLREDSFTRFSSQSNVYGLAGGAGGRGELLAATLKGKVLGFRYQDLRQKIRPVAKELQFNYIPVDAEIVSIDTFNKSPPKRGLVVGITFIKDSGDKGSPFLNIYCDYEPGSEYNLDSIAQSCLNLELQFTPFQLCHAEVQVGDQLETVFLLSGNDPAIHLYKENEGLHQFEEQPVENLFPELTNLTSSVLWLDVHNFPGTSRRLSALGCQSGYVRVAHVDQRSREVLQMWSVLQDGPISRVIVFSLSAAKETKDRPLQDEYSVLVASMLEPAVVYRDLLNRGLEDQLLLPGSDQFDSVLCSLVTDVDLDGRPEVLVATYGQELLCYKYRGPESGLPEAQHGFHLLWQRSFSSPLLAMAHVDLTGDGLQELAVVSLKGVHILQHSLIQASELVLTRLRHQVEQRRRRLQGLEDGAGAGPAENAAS

[2] = target: T2, D202A hSAMTOR interaction with GATOR1-KICSTOR (Homo sapiens, UniProt Q1RMZ1, D202A); test: Co-IP of Flag-hSAMTOR-D202A with HA-Nprl3 and Myc-Kaptin with or without SAM; assay type: biochemical; conditions: HEK 293T cell lysates, 0.5 mM SAM
T2 sequence (Q1RMZ1 1-405 D202A): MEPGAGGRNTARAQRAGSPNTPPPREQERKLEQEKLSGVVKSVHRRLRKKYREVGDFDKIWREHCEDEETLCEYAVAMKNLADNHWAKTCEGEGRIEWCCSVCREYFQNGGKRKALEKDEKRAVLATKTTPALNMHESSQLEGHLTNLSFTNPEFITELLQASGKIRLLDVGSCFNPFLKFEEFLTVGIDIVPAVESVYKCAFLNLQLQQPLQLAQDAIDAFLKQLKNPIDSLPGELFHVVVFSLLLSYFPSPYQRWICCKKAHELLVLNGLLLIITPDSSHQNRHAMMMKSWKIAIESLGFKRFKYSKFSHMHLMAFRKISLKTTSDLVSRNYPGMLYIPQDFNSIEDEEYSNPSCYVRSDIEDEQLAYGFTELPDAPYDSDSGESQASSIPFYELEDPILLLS

SMILES: C[S+](CC[C@H](N)C(=O)[O-])C[C@H]1O[C@@H](n2cnc3c(N)ncnc32)[C@H](O)[C@@H]1O (stereo partly drawn) [SAM, S-adenosylmethionine]
- Kd (hSAMTOR): 7 µM
- effect of SAM on interaction of the MTase domain with GATOR1-KICSTOR (co-IP) [1]: no apparent effect
- effect of SAM on interaction of hSAMTOR with GATOR1-KICSTOR (co-IP) [2]: comparable interactions with GATOR1 and KICSTOR in both the absence and presence of SAM
